Key:
Type in all cases: cell-based
[1] = system: 293T cells stably expressing split RL reporters; experiment: Cell Titer-Blue cell proliferation assay; details: Homo sapiens, HEK-293T
Experimental: Inhibition of cell proliferation at 20 μM was determined by cell-titer blue assays and toxic compounds were eliminated. The IC50 values for inhibition of bioluminescence signals (BLI) in cells stably expressing Hsp90(α/β)/p23 split RL reporters and the inhibition of cell proliferation for the top 19 compounds are shown in Table 1, Example 15, and their structures are shown in FIGS. 1A-1D.
(§1) Baseline complemented RL activities were determined 90 mins after addition of 20 μl of ENDUREN® (10 μM final concentration) (Promega, Madison, Wis.) using the Analyst GT (Molecular Device, Sunnyvale, Calif.), with an acquisition time of 0.2 sec per well. Cells were incubated with compounds for 24 h prior to re-determination of complemented RL activities, and normalized to the mean RL activities of untreated cells in columns 1-2. Another small molecule chemical library with 30,176 compounds (SPECS, Wakefield, R.I.) was also used in screening modulators of Hsp90(α/β)/p23 inhibitors (at 8.3 μM, one drug per well for initial screening). For dose response/confirmation assay the compounds were tested in duplicate in an 8 point (0.156-20 μM) dose response assay for RL activities for both Hps90(α/β)/p23 interactions. The effect of each compound on cell proliferation at 20 μM was determined using Cell Titer-Blue assay in duplicate wells. […]

[2] = molecular target: T1, Hsp90β/p23 interactions (Homo sapiens, UniProt P08238); experiment: HTS dose response, 293T cells stably expressing Hsp90β/p23 split RL reporters; details: inhibition of bioluminescence signals by 50% vs carrier control; 8 point dose response 0.156-20 μM; 24 h
T1 construct: expressed in transfected cells; also with FL-eGFP reporter (293Tβ-FG) and as xenografts in nude mice
T1 sequence (P08238 whole entry): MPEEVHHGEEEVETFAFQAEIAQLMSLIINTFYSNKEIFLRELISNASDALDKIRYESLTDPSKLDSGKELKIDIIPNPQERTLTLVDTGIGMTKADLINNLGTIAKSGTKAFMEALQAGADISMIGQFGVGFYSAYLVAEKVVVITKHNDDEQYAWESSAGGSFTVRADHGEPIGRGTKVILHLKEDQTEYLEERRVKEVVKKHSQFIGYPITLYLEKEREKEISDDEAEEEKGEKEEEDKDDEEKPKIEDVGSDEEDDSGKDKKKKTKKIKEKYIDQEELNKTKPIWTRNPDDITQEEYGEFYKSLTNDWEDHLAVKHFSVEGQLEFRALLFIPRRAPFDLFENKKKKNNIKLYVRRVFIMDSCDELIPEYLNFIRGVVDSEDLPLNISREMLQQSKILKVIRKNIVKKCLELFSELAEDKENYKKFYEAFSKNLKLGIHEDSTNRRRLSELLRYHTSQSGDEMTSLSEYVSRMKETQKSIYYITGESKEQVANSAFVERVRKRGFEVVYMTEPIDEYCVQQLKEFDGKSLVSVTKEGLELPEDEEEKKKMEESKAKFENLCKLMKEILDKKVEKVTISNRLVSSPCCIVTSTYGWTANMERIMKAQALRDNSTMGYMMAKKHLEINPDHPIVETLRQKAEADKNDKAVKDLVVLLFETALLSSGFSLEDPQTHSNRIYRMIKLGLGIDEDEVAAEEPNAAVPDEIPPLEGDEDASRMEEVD
Experimental: Novel Hsp90 inhibitors using a commercial 30,176 small molecule chemical compound library with unknown targets and molecular mechanisms (FIG. 9B) were also identified. 293T cells stably expressing Hsp90α/p23 or Hsp90β/p23 split RL reporters were treated with each compound at 8.3 μM.
as §1

[3] = system: 1975, 2008, HT29 cells; experiment: 3H-FLT cell uptake (mammalian thymidine kinase activities); details: 48 h post treatment
Experimental: FIG. 10D is a graph illustrating the effect of CP9 on mammalian thymidine kinase activities in 1975, 2008, HT29, and MEFs cells as determined by ^3H-FLT cell uptake studies 48 h post treatment. Results were expressed as mean counts per minute/μg protein/initial dose±S.E.M. *, p<0.05 vs. carrier control treated cells.
To determine the specificity of CP9 in inhibition of glucose metabolism, normal MEF cells were used as a control.
To determine the downstream effects of lead compounds on glucose metabolism, 1.5×10^5 293T, 1975 and 2008 and MEFs cells plated in 24-well plate for 24 h, prior to treatment with different concentrations of CP9 for 24 or 48 h and subsequent incubation with 1 μCi of ^3H-FDG in 500 μl of medium for 1 h at 37° C. Cells treated with 2.5 μM of PU-H71 served as a positive control. The total counts in each sample were normalized to that of the dose added to each well and to the amount of protein, and expressed as mean counts/dose/μg protein±S.E.M. Likewise, the effect of CP9 on cell proliferation was determined using 1 μCi of ^3H-FLT per well after 2 h of incubation at 37° C.

IC50 [2]: 15.3 µM
SMILES: Cc1cc(NC(=O)CSc2nc(-c3cccs3)cc(C(F)(F)F)n2)no1 [CP9, N-(5-methylisoxazol-3-yl)-2-(4-(thiophen-2-yl)-6-(trifluoromethyl)pyrimidin-2-ylthio)acetamide]
inhibition at 20 µM [1]: 29% | 3H-FLT uptake in cancer cell lines [3]: inhibits

From patent US20130310347A1, “MULTI-MODALITY MOLECULAR IMAGING HIGH-THROUGHPUT ASSAY FOR IDENTIFYING HEAT SHOCK PROTEIN 90 (HSP90) INHIBITORS” (The Board of Trustees of the Leland Stanford Junior …, priority 2012, published 2013)
